# Entries after “also recorded” stand apart in the source; their conditions may differ.
# Assays:
# [1] = system: pseudotyped NiV/VSV virus (pNiV)
# [2] = system: HEK293T cells expressing NiV F and G; format: cell-based
# NiV = conditions: cited from earlier work
# pNiV viral membranes = system: pNiV viral membranes; parameters: species or system NiV
# [3] = target: NiV F and G on pNiV virions (Nipah virus, UniProt Q9IH62+Q9IH63)
# [4] = system: bovine rotavirus strain NCDV; assay: Rotavirus infection assay in MA104 cells; format: cell-based; conditions: non-enveloped virus
# Procedure: 18β-glycyrrhetinic acid (GRA) (Sigma-Aldrich) stock solutions were prepared to a concentration of 100 mg/mL in DMSO and aliquots were stored at −80° C. The stock solutions were diluted to working concentrations in DMEM without FBS. For the control compounds, MA104 (ATCC) cells were treated for 6 h with 25 μg/mL GRA. The viability was measured with the Promega CellTiterGlo Assay according to the manufacturer's protocol, with digitonin as the control for 100% cytotoxicity. Data shown are representative of two experiments, with each concentration tested in triplicate in each experiment. Error bars indicate SEM. […] Mock-infected wells received 50 μl of 0% M199 vehicle media. 50 μl of fresh 2× control and experimental compounds were added and at 18 h post-infection, the cells were fixed for 10 min with 80% acetone (Hardy et al., “18 Beta-glycyrrhetinic Acid Inhibits Rotavirus Replication in Culture,” Virol. J. 9:96 (2012), which is hereby incorporated by reference in its entirety).
# NiV F protein = NiV F protein (Nipah virus, UniProt Q9IH63)
# HSV-1 KOS = assay: Plaque assay for HSV-1 infections; format: cell-based; conditions: virions treated with XM-01 before infection, various concentrations
# Procedure: At 3 h post-inoculation, the medium was removed. At 18 to 24 h post-infection, the culture medium was removed, and cells were fixed with an ice-cold methanol-acetone solution (2:1 ratio) for 20 min at […] and air-dried. Virus titers were determined by immunoperoxidase staining with anti-HSV polyclonal antibody HR50 (Fitzgerald Industries, Concord, MA) (Roller et al., “Structure-Function Analysis of Herpes Simplex Virus Glycoprotein B with Fusion-from-without Activity,” Virology 382:207-216 (2008), which is hereby incorporated by reference in its entirety).
# [5] = system: Human Cytomegalovirus (HCMV); format: cell-based
# [6] = system: vesicular stomatitis virus (VSV); format: cell-based
# [7] = system: A/California/04/2009 (H1N1); format: cell-based, influenza virus
# [8] = system: Human respiratory syncytial virus (RSV A2 strain); format: cell-based
# NiV G glycoprotein = NiV G glycoprotein (Nipah virus, UniProt Q9IH62)
# [9] = system: NiV F and G glycoproteins; format: cell-based; conditions: XM-01 treatment
# norovirus = assay: Plaque assay for norovirus infection in RAW 264.7 cells; format: cell-based; conditions: non-enveloped virus
# Procedure: RAW 264.7 (ATCC) cells were infected with serial dilutions of norovirus for 1 h. 3% wt/vol Seaplaque agarose in 2×MEM media was placed as a first overlay. Then, cells were incubated for 48 h when plaques were visible and counted.
# [10] = system: SARS-CoV-2 (isolate USA-WA1/2020); format: cell-based
# Sequence of NiV F protein (Q9IH63 110-546 limits assumed): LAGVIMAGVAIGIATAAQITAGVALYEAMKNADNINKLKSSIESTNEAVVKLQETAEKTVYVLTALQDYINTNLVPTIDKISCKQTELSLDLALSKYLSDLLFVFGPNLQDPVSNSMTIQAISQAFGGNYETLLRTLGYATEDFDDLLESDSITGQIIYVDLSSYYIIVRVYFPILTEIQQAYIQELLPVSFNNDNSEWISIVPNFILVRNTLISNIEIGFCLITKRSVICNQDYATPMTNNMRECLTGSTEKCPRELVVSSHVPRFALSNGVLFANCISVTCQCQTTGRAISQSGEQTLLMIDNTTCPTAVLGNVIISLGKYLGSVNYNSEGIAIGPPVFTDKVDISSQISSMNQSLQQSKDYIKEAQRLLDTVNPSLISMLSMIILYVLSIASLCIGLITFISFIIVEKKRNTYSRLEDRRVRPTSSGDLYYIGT
# Sequence of NiV F protein (Q9IH63 27-109 limits assumed): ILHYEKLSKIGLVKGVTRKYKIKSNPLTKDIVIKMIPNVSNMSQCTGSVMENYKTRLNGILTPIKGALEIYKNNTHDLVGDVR
# Sequence of NiV G glycoprotein (Q9IH62 whole entry, looked up): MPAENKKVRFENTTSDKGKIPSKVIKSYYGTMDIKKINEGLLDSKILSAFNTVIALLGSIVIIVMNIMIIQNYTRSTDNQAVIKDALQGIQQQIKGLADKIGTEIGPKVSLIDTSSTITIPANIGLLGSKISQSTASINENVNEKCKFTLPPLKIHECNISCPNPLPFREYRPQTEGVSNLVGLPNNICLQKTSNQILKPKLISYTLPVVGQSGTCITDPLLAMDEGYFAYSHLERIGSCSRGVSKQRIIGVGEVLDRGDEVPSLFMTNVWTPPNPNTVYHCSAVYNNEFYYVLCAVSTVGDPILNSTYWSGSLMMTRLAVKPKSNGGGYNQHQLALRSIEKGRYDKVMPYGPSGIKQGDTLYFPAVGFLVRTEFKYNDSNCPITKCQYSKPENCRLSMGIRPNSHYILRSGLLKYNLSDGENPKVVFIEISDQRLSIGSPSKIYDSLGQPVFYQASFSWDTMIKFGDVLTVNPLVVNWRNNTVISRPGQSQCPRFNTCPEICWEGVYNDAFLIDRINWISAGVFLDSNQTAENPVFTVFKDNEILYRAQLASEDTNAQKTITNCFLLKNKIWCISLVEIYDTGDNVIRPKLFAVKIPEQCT
smiles,measurement,setting,value
"C=CCN1C(=O)/C(=C/c2ccc(-c3ccccc3)o2)SC1=S [LJ001, reference compound]",antiviral activity in the absence of light,[1],severely reduced in the absence of light
same,cell-cell fusion (syncytia),[2],affect cell-cell fusion
[Na+].[SH-] [NaHS],antiviral effects against NiV,NiV,"known antiviral effects against NiV, although at high (millimolar) concentrations"
COC(=O)C(CSSC(=O)c1ccccc1)NC(=O)c1ccccc1 (stereo not drawn) [XM-01],viral membrane appearance by electron microscopy,pNiV viral membranes,compromised membranes
same,CC50,Vero cells,~1000 µM
same,cytotoxicity,Vero cells,little to no cytotoxicity
same,cytotoxicity levels,Vero cells,low levels of cytotoxicity
same,EC50,[1],~1 µM
same,antiviral activity in the absence of light,[1],did not need light to inhibit pNiV infection
same,difference between the inhibitory and cytotoxic concentrations,[1],~ 3 log
same,infectivity of treated virions,[1],highly inhibited
same,inhibition of infection post-entry (time of XM-01 addition),[1],completely incapable of inhibiting the infection
same,viral infection after pre-treatment of cells,[1],did not significantly reduce viral infection
same,cell-cell membrane fusion (syncytia),[2],significantly reduced levels of cell-cell membrane fusion
same,antibody binding to F or G (conformation),[3],no significant changes in antibody binding to either glycoprotein
same,inhibition of rotavirus entry,[4],not inhibited
same,F-triggering,NiV F protein,not decreased
same,inhibition of HSV-1 infection,HSV-1 KOS,inhibited by XM-01 in a concentration-dependent fashion
same,inhibition of HCMV infection,[5],inhibited by XM-01 in a concentration-dependent fashion
same,inhibition of VSV infection,[6],inhibited by XM-01 in a concentration-dependent fashion
same,EC50,[7],high nanomolar to low micromolar range
same,inhibition of influenza A/California/04/2009 infection,[7],inhibited by XM-01 in a concentration-dependent fashion; also recorded: significantly inhibited
same,neutralization of influenza,[7],complete neutralization
same,inhibition of RSV infection,[8],inhibited by XM-01 in a concentration-dependent fashion
same,ephrinB2/G binding,NiV G glycoprotein,did not interfere with the receptor-binding ability of the G glycoprotein
same,cell surface expression of F and G glycoproteins,[9],not be significantly affected
same,inhibition of norovirus entry,norovirus,not inhibited
same,inactivation of SARS-CoV-2,[10],complete inactivation
same,inhibition of plaque formation of SARS-CoV2,[10],effective to inhibit plaque formation
CC(=O)NC(CSSC(=O)c1ccccc1)C(=O)NCc1ccccc1 (stereo not drawn) [XM-02],cytotoxicity levels,Vero cells,low levels of cytotoxicity
same,infectivity of pNiV in Vero cells,[1],best inhibited pNiV infections
same,inhibitory properties against pNiV,[1],inhibitory properties
COC(=O)C(CSSC(C)=O)NC(=O)c1ccccc1 (stereo not drawn) [XM-03],cytotoxicity levels,Vero cells,low levels of cytotoxicity
same,infectivity of pNiV in Vero cells,[1],best inhibited pNiV infections
same,inhibitory properties against pNiV,[1],inhibitory properties
CCCCNC(=O)C(CCSSC(=O)c1ccccc1)NC(=O)c1ccccc1 (stereo not drawn) [XM-06],infectivity of pNiV in Vero cells,[1],best inhibited pNiV infections
COC(=O)C(CSC(=O)c1ccccc1)NC(=O)c1ccccc1 (stereo not drawn) [XM-10],cytotoxicity levels,Vero cells,low levels of cytotoxicity
same,inhibitory properties against pNiV,[1],inhibitory properties
COC(=O)C(CSC(C)=O)NC(=O)c1ccccc1 (stereo not drawn) [XM-11],cytotoxicity levels,Vero cells,low levels of cytotoxicity
same,inhibitory properties against pNiV,[1],inhibitory properties
O=C(SSC(=O)c1ccccc1)c1ccccc1 [XM-12],infectivity of pNiV in Vero cells,[1],best inhibited pNiV infections
"C=O [formalin, reference compound]",inactivation of SARS-CoV-2,[10],complete inactivation

# Reference: US12728161B2 (priority 2019, dated 2026)
